Source: PMC11077089, “Molecular basis of A. thaliana KEOPS complex in biosynthesizing tRNA t^6A” (Nucleic Acids Research, 2024)

Key:
Type in all cases: biochemical
KBP (KAE1–BUD32–PCC1) = molecular target: T1, KBP (KAE1–BUD32–PCC1) (Arabidopsis thaliana, UniProt Q94K14); experiment: NADH-coupled ATPase assay; settings: 2 mM ATP, 5 μM protein, 5 mM MgCl2, pH 7.5, 25°C
T1 construct: gene T1N24.12; subcomplex without CGI121, recombinant from E. coli; dimer by SEC; with tRNA N6-adenosine threonylcarbamoyltransferase KAE1; EKC/KEOPS complex subunit PCC1
T1 sequence (Q94K14 1-226): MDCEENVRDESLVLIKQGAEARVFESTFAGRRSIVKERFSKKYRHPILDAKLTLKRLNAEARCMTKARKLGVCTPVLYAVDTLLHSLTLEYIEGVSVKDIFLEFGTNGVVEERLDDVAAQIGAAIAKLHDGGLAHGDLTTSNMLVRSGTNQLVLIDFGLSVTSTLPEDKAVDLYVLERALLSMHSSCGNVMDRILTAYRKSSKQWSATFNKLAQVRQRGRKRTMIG
T1 sequence (O49653 1-353 partner): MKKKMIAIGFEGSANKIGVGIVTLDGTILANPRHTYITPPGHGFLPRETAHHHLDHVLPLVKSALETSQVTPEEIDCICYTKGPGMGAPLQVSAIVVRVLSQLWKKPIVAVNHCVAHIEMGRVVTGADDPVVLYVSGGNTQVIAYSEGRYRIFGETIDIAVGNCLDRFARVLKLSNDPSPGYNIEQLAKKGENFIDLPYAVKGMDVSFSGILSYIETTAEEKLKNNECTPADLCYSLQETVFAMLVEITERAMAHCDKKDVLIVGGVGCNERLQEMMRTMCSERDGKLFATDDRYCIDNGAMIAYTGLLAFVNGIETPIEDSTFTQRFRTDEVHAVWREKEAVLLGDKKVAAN
T1 sequence (Q8GWD7 1-96 partner): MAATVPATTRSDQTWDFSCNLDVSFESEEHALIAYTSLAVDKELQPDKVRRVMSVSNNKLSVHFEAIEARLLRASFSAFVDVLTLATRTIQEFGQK

KB (KAE1–BUD32) = molecular target: T2, KB (KAE1–BUD32) (Arabidopsis thaliana, UniProt Q94K14); experiment: NADH-coupled ATPase assay; settings: 2 mM ATP, 5 μM protein, 5 mM MgCl2, pH 7.5, 25°C
T2 construct: gene T1N24.12; pET21a-AtKAE1-BUD32-6His, E. coli; monomer (1:1) by SEC; with tRNA N6-adenosine threonylcarbamoyltransferase KAE1
T2 sequence (Q94K14 1-226): T1 sequence (Q94K14 1-226)
T2 sequence (O49653 1-353 partner): T1 sequence (O49653 1-353 partner)

[1] = molecular target: T3, AtYRDC (A. thaliana YRDC) (Arabidopsis thaliana, UniProt F4K0E6); experiment: LC-MS of TC-AMP formation; settings: 2 μM YRDC, 4 mM L-threonine, 2 mM ATP, 20 mM NaHCO3, 5 mM MgCl2, pH 7.5, 25°C
T3 construct: gene MUP24.1; pET21a-AtYRDC-6His, E. coli, synthetic DNA
T3 sequence (F4K0E6 1-288): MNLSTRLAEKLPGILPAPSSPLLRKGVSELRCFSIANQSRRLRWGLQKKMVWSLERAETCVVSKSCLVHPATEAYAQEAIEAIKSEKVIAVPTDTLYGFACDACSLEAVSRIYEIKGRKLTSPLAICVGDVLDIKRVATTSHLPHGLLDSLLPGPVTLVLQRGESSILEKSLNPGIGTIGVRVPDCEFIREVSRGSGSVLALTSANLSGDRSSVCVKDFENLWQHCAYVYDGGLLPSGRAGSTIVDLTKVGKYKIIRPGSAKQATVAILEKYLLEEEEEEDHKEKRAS

| Compound | NADH-coupled ATPase assay (KBP (KAE1–BUD32–PCC1)) | NADH-coupled ATPase assay (KB (KAE1–BUD32)) | LC-MS of TC-AMP formation [1] |
| --- | --- | --- | --- |
| Nc1ncnc2c1ncn2[C@@H]1O[C@H](COP(=O)(O)OP(=O)(O)OP(=O)(O)O)[C@@H](O)[C@H]1O [ATP] | efficient conversion of ATP to ADP in the presence of KAE1–BUD32, PCC1–KAE1–BUD32 or KEOPS | efficient conversion of ATP to ADP in the presence of KAE1–BUD32, PCC1–KAE1–BUD32 or KEOPS |  |
| C[C@@H](O)[C@H](N)C(=O)O [L-threonine] |  |  | YRDC is active in catalyzing the formation of threonylcarbamoyl-AMP (TC-AMP) |
